Experimental data as given in patent US20250360130A1, “METHODS OF TREATING INDOLENT SYSTEMIC MASTOCYTOSIS” (Telios Pharma Inc., priority 2024, published 2025).
pEC50: −log10 of the molar value.

Assays:
mast cells [1] = assay: Monomeric IgE-mediated degranulation and cytokine production in mast cells; type: cell-based, human; conditions: mast cells from a healthy donor, 2 hours treatment, myeloma IgE with SCF
Experimental: Mast cells from a healthy donor were starved of SCF for 18 hours and treated with Compound 128 for 2 hours. Mast cells were stimulated with SCF (100 ng/ml) or myeloma IgE (3 μg/ml; Millipore Sigma) alone or in combination for 30 minutes (CD63 and Histamine) or 24 hours (cytokine production), respectively. For the histamine and cytokine test, supernatant was collected and the levels of histamine and cytokines were measured as set forth in Example 4 for histamine and Example 7 for cytokines. For the CD63 test, the cells were stained for CD63, data was acquired on a flow cytometer and percent activated mast cells calculated as set forth in Example 4. […] The monomeric IgE contribution to degranulation and cytokine production is inhibited by Compound 128.

mast cells [2] = assay: Downstream signaling proteins in antigen-stimulated mast cells (FIG. 20); type: cell-based; conditions: mast cells stimulated with an antigen
BTK = BTK (Homo sapiens, UniProt Q06187); assay: Phospho-BTK (pBTK) test in basophils, whole blood; type: cell-based; parameters: Human mast cells were differentiated from bone marrow CD34+ cells from six healthy donors; endogenous in cells; host or cells: human mast cells differentiated from bone marrow CD34+ cells of healthy donors, cultured with SCF; conditions: 24 hours exposure, CCR3+ basophils, anti-FcεR stimulation; read-out: average EC50 (n=4), pBTK (Y223) normalized to DMSO control
Sequence of BTK (Q06187 whole entry): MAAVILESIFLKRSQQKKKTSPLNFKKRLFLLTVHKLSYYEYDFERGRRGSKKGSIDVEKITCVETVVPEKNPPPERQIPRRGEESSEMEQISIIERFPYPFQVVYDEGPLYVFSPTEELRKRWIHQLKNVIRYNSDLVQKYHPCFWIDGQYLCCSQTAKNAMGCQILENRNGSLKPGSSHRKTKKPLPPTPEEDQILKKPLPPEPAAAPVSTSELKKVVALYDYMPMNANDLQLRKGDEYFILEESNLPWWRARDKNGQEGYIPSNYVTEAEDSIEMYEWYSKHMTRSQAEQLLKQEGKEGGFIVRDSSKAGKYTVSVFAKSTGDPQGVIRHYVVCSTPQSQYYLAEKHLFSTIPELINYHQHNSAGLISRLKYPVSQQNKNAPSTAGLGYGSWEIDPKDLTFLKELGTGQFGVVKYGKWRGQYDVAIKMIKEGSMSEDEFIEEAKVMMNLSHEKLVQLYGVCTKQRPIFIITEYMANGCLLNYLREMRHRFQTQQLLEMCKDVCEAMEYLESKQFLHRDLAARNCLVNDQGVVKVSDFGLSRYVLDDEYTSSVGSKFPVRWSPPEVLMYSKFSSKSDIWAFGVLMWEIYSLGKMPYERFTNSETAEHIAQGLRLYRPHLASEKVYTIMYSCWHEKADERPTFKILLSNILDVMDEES
Experimental: Blood from four healthy donors was drawn and Compound 128 was added at various concentrations (10 µM, 3.16 μM, 1 μM, 0.3 μM, 0.1 μM, 0.03 μM, or 0 μM). Blood samples were gently rocked at room temperature for 24 hours. The pBTK test was then conducted by (1) stimulating the blood with anti-FcεR stimulation control from Flow Cast Basophil Activation Kit and staining cells for CCR3 (Becton Dickinson) and a near-IR dead cell stain (nIR; Invitrogen) for 15 minutes at 37° C., (2) lysing red blood cells and fixing cells with Phosflow Lyse/Fix Buffer (Becton Dickinson) at 37° C. for 10 minutes, (3) washing once with 1× phosphate-buffered saline (PBS), (4) washing twice with Perm/Wash buffer (Becton Dickinson), (5) permeabilizing cells with Perm/Wash buffer on ice for 15 minutes, (6) staining cells for rabbit anti-human pBTK (Abcam) for 30 minutes on ice, (7) washing twice with Perm/Wash buffer, (8) staining with goat anti-rabbit secondary antibody (Invitrogen) for 30 minutes on ice, (9) washing twice with Perm/Wash buffer, and (10) acquiring data on a flow cytometer. Live basophils were defined as nIR−, CCR3+ and low side scatter. The median fluorescence intensity of phosphorylated BTK was measured and percent of stimulated control was calculated. […] The percent of stimulated control of activated mast cells (CD63+) was calculated. […]

- pEC50 (BTK): 6.89
Structure (SMILES): C=CC(=O)N1CCC(F)(CNc2ncnc(N)c2-c2ccc(Oc3ccccc3)cc2)CC1 [Compound 128, 1-(4-(((6-amino-5-(4-phenoxyphenyl)pyrimidin-4-yl)amino)methyl)-4-fluoropiperidin-1-yl)prop-2-en-1-one]
- monomeric IgE contribution to degranulation and cytokine production (mast cells [1]): inhibited
- activation of multiple downstream signaling proteins (mast cells [2]): can be inhibited
